Structures can show the parent of a compound that is named as a salt. Where two headings read alike, the source gives them in different places.
Test system: NQO1 specific enzyme activity in BEAS-2B cells
Assay: BEAS-2B NQO1 MTT assay
Type: cell-based
Conditions: BEAS-2B cells, 48 hours with compound, MTT readout, read-out: EC50 of NQO1 specific activity induction
Summary of the method: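 NQO1 specific activity, an NRF2 activation marker, read kinetically as absorbance change at 570 nm for 30 min after MTT cocktail addition to crude lysates of BEAS-2B cells exposed 48 h to compound. Three-parameter fit of Delta OD/min against log concentration gives EC50; lysate portion used for Cell Titer Glo.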

Cc1ccc(C(c2ccc3c(nnn3C)c2C)C(C)(C)C(=O)O)cc1Cn1ccnc1CN1CCCCCC1 (stereo not shown) [Example 141, 3-(3-((2-(Azepan-1-ylmethyl)-1H-imidazol-1-yl)methyl)-4-methylphenyl)-3-(1,4-dimethyl-1H-benzo[d][1,2,3]triazol-5-yl)-2,2-dimethylpropanoic acid, trifluoroacetic acid salt]
EC50 (trifluoroacetic acid salt): 1000 to 10000 nM

CCC1Cc2c(F)cccc2CN(Cc2cc(C(c3ccc4c(nnn4C)c3C)C(C)(C)C(=O)O)ccc2C)C1 (stereo not shown) [Example 36, 3-(1,4-Dimethyl-1H-benzo[d][1,2,3]triazol-5-yl)-3-(3-((4-ethyl-6-fluoro-4,5-dihydro-1H-benzo[c]azepin-2(3H)-yl)methyl)-4-methylphenyl)-2,2-dimethylpropanoic acid]
EC50 (Homo sapiens, BEAS-2B, 48 h): 1 to 10 nM

CC[C@@H]1CN(Cc2cc(C(CCc3cn(CC)nn3)CC(=O)O)ccc2Cl)Cc2ncccc2O1 (stereo partly drawn) [Example 231, 3-(4-Chloro-3-(((R)-2-ethyl-2,3-dihydropyrido[2,3-f][1,4]oxazepin-4(5H)-yl)methyl)phenyl)-5-(1-ethyl-1H-1,2,3-triazol-4-yl)pentanoic Acid]
EC50 (Homo sapiens, BEAS-2B, 48 h): 100 to 1000 nM

Cc1ccc([C@H](CC(=O)O)c2ccc3c(nnn3C)c2C)cc1CN1Cc2ccncc2OC(C)(C)C1 [Example 264, (S)-3-(1,4-dimethyl-1H-benzo[d][1,2,3]triazol-5-yl)-3-(3-((2,2-dimethyl-2,3-dihydropyrido[4,3-f][1,4]oxazepin-4(5H)-yl)methyl)-4-methylphenyl)propanoic acid]
EC50 (Homo sapiens, BEAS-2B, 48 h): 1000 to 10000 nM

COc1ccc(C2COCCN2Cc2cc(C(CC(=O)O)c3ccc4c(nnn4C)c3C)ccc2C)cc1 (stereo not shown) [Example 21, 3-(1,4-dimethyl-1H-benzo[d][1,2,3]triazol-5-yl)-3-(3-((3-(4-methoxyphenyl)morpholino)methyl)-4-methylphenyl)propanoic acid, formic acid salt]
EC50 (Homo sapiens, BEAS-2B, 48 h): 1000 to 10000 nM

Cc1ccc(C(c2ccc3c(nnn3C)c2C)C2(C(=O)O)CC2)cc1CN1Cc2cnccc2OC(C)(C)C1 (stereo not shown) [Example 211, 1-((1,4-Dimethyl-1H-benzo[d][1,2,3]triazol-5-yl)(3-((2,2-dimethyl-2,3-dihydropyrido[3,4-f][1,4]oxazepin-4(5H)-yl)methyl)-4-methylphenyl)methyl)cyclopropanecarboxylic acid, Trifluoroacetic Acid Salt]
EC50 (Homo sapiens, BEAS-2B, 48 h): 10 to 100 nM

CCC1CCN(Cc2nccn2Cc2cc(C(CCc3cn(CC)nn3)C(C)(C)C(=O)O)ccc2C)CC1 (single isomer, unassigned) [Example 250, 5-(1-ethyl-1H-1,2,3-triazol-4-yl)-3-(3-((2-((4-ethylpiperidin-1-yl)methyl)-1H-imidazol-1-yl)methyl)-4-methylphenyl)-2,2-dimethylpentanoic acid]
EC50: 10 to 100 nM

CC[C@@H]1CN(Cc2cc([C@H](CC(=O)O)c3ccc4c(nnn4C)c3C)ccc2C)Cc2cnccc2O1 [Example 50, (S)-3-(1,4-Dimethyl-1H-benzo[d][1,2,3]triazol-5-yl)-3-(3-(((R)-2-ethyl-2,3-dihydropyrido[3,4-f][1,4]oxazepin-4(5H)-yl)methyl)-4-methylphenyl)propanoic acid, formic acid salt]
EC50 (Homo sapiens, BEAS-2B, 48 h): 10 to 100 nM

Cc1ccc(C(CC(=O)O)c2ccc3c(nnn3C)c2C)cc1CN(C)Cc1cccc(Br)c1 (stereo not shown) [Example 17, Ammonium 3-(3-(((3-bromobenzyl)(methyl)amino)methyl)-4-methylphenyl)-3-(1,4-dimethyl-1H-benzo[d][1,2,3]triazol-5-yl)propanoate]
EC50 (Homo sapiens, BEAS-2B, 48 h): 1000 to 10000 nM

CC[C@@H]1CN(Cc2cc([C@@H](c3ccc4c(nnn4C)c3C)C(C)(C)C(=O)O)ccc2C)Cc2ncccc2O1 [Example 218, (S)-3-(1,4-Dimethyl-1H-benzo[d][1,2,3]triazol-5-yl)-3-(3-(((R)-2-ethyl-2,3-dihydropyrido[2,3-f][1,4]oxazepin-4(5H)-yl)methyl)-4-methylphenyl)-2,2-dimethylpropanoic Acid, Trifluoroacetate]
EC50 (Homo sapiens, BEAS-2B, 48 h): 1 to 10 nM

Cc1ccc(C(CC(=O)O)c2ccc3c(nnn3C)c2C)cc1Cn1ccnc1CC1CCCCCC1 (stereo not shown) [Example 146, 3-(3-((2-(Cycloheptylmethyl)-1H-imidazol-1-yl)methyl)-4-methylphenyl)-3-(1,4-dimethyl-1H-benzo[d][1,2,3]triazol-5-yl)propanoic acid, formic acid salt]
EC50 (Homo sapiens, BEAS-2B, 48 h): 10 to 100 nM

Cc1c(C(CC(=O)O)c2ccc(Cl)c(CN3CCCC(n4cccn4)C3)c2)ccc2c1nnn2C (stereo not shown) [Example 160, 3-(3-((3-(1H-Pyrazol-1-yl)piperidin-1-yl)methyl)-4-chlorophenyl)-3-(1,4-dimethyl-1H-benzo[d][1,2,3]triazol-5-yl)propanoic Acid, Formic Acid Salt]
EC50 (Homo sapiens, BEAS-2B, 48 h): 1000 to 10000 nM

CCC1CN(Cc2cc(C(CC(=O)O)c3ccc4c(nnn4C)c3C)ccc2C)Cc2ccccc2O1 (stereo not shown) [Example 2, 3-(1,4-Dimethyl-1H-benzo[d][1,2,3]triazol-5-yl)-3-(3-((2-ethyl-2,3-dihydrobenzo[f][1,4]oxazepin-4(5H)-yl)methyl)-4-methylphenyl)propanoic Acid, Trifluoroacetic Acid Salt]
EC50 (Homo sapiens, BEAS-2B, 48 h): 100 to 1000 nM

CC[C@@H]1CN(Cc2cc([C@@H](c3ccc4c(nnn4C)c3C)C(C)(C)C(=O)OCOC(=O)C(C)(C)C)ccc2C)Cc2cnccc2O1 [Example 253, (S)-(Pivaloyloxy)methyl 3-(1,4-dimethyl-1H-benzo[d][1,2,3]triazol-5-yl)-3-(3-(((R)-2-ethyl-2,3-dihydropyrido[3,4-f][1,4]oxazepin-4(5H)-yl)methyl)-4-methylphenyl)-2,2-dimethylpropanoate]
EC50 (Homo sapiens, BEAS-2B, 48 h): < 1 nM

Cc1ccc([C@@H](CC(=O)O)c2ccc3c(nnn3C)c2C)cc1CN1Cc2ccc(F)cc2OC(C)(C)C1 [Example 59, (R)-3-(1,4-Dimethyl-1H-benzo[d][1,2,3]triazol-5-yl)-3-(3-((8-fluoro-2,2-dimethyl-2,3-dihydrobenzo[f][1,4]oxazepin-4(5H)-yl)methyl)-4-methylphenyl)propanoic acid]
EC50 (Homo sapiens, BEAS-2B, 48 h): 10 to 100 nM

CCn1nnc2c(C)c([C@@H](c3ccc(C)c(Cn4ccnc4CN4CCCCC4)c3)[C@H](C)C(=O)O)ccc21 [Example 201, (2S,3R)-3-(1-Ethyl-4-methyl-1H-benzo[d][1,2,3]triazol-5-yl)-2-methyl-3-(4-methyl-3-((2-(piperidin-1-ylmethyl)-1H-imidazol-1-yl)methyl)phenyl)propanoic Acid]
EC50 (Homo sapiens, BEAS-2B, 48 h): 100 to 1000 nM

CC[C@@H]1CN(Cc2cc(C(CCc3cn(CC)nn3)C(C)(C)C(=O)O)ccc2C)Cc2ncccc2O1 (single isomer, unassigned) [Example 251]
EC50: 1 to 10 nM

CC[C@@H]1CN(Cc2cc([C@@H](c3ccc4c(nnn4C)c3C)[C@@H](C)C(=O)O)ccc2C)Cc2ccccc2O1 [Example 38, (2R,3S)-3-(1,4-dimethyl-1H-benzo[d][1,2,3]triazol-5-yl)-3-(3-(((R)-2-ethyl-2,3-dihydrobenzo[f][1,4]oxazepin-4(5H)-yl)methyl)-4-methylphenyl)-2-methylpropanoic Acid, Formic Acid Salt]
EC50 (Homo sapiens, BEAS-2B, 48 h): 10 to 100 nM

CCC1CCN(Cc2nccn2Cc2cc([C@@H](c3ccc4c(nnn4CC)c3C)C(C)(C)C(=O)O)ccc2C)CC1 [Example 239, (S)-3-(1-Ethyl-4-methyl-1H-benzo[d][1,2,3]triazol-5-yl)-3-(3-((2-((4-ethylpiperidin-1-yl)methyl)-1H-imidazol-1-yl)methyl)-4-methylphenyl)-2,2-dimethylpropanoic Acid]
EC50 (Homo sapiens, BEAS-2B, 48 h): < 1 nM

CCC1CCC(Cc2nccn2Cc2cc(C(CC(=O)O)c3ccc4c(nnn4C)c3C)ccc2C)CC1 (stereo not shown) [Example 132, 3-(1,4-Dimethyl-1H-benzo[d][1,2,3]triazol-5-yl)-3-(3-((2-((4-ethylcyclohexyl)methyl)-1H-imidazol-1-yl)methyl)-4-methylphenyl)propanoic Acid]
EC50 (Homo sapiens, BEAS-2B, 48 h): 1000 to 10000 nM

CC[C@@H]1CN(Cc2cc([C@@H](c3ccc4c(nnn4C)c3C)C(C)(C)C(=O)O)ccc2C)Cc2cncc(F)c2O1 [Example 28, (S)-3-(1,4-Dimethyl-1H-benzo[d][1,2,3]triazol-5-yl)-3-(3-(((R)-2-ethyl-9-fluoro-2,3-dihydropyrido[3,4-f][1,4]oxazepin-4(5H)-yl)methyl)-4-methylphenyl)-2,2-dimethylpropanoic acid]
EC50 (Homo sapiens, BEAS-2B, 48 h): < 1 nM

Cc1ccc(C(c2ccc3c(nnn3C)c2C)C(C)(C)C(=O)O)cc1CN1Cc2cccnc2OC(C)(C)C1 (stereo not shown) [Example 23, 3-(1,4-Dimethyl-1H-benzo[d][1,2,3]triazol-5-yl)-3-(3-((2,2-dimethyl-2,3-dihydropyrido[3,2-f][1,4]oxazepin-4(5H)-yl)methyl)-4-methylphenyl)-2,2-dimethylpropanoic Acid, Trifluoroacetic Acid]
EC50 (Homo sapiens, BEAS-2B, 48 h): 10 to 100 nM

Cc1ccc([C@H](c2ccc3c(nnn3C)c2C)[C@H](C)C(=O)O)cc1CN1Cc2cnccc2OC(C)(C)C1 [Example 198, (2S,3R)-3-(1,4-Dimethyl-1H-benzo[d][1,2,3]triazol-5-yl)-3-(3-((2,2-dimethyl-2,3-dihydropyrido[3,4-f][1,4]oxazepin-4(5H)-yl)methyl)-4-methylphenyl)-2-methylpropanoic acid, 0.1 formic acid salt]
EC50 (Homo sapiens, BEAS-2B, 48 h): 10 to 100 nM

Cc1ccc(C(CC(=O)O)c2ccc3c(nnn3C)c2C)cc1Cn1ccnc1CN1CCCCCC1 (stereo not shown) [Example 147, 3-(3-((2-(Azepan-1-ylmethyl)-1H-imidazol-1-yl)methyl)-4-methylphenyl)-3-(1,4-dimethyl-1H-benzo[d][1,2,3]triazol-5-yl)propanoic acid, formic acid salt]
EC50 (Homo sapiens, BEAS-2B, 48 h): 1000 to 10000 nM

Cc1ccc(C(CC(=O)O)c2ccc3c(nnn3C)c2C)cc1CN(C)Cc1ccccc1Br (stereo not shown) [Example 15, Ammonium 3-(3-(((2-bromobenzyl)(methyl)amino)methyl)-4-methylphenyl)-3-(1,4-dimethyl-1H-benzo[d][1,2,3]triazol-5-yl)propanoate]
EC50 (Homo sapiens, BEAS-2B, 48 h): 1000 to 10000 nM

From patent publication US10604509B2, “Nrf2 regulators” (GlaxoSmithKline Intellectual Property Development Limited, priority 2015, dated 2020)
